{"source": "ChEMBL document CHEMBL4665643", "about": "(Bioorg Med Chem Lett, 2019)", "key": {"[1]": {"target": "T1, cGMP-dependent protein kinase 1 (Homo sapiens) (UniProt Q13976)", "T1 sequence (whole entry)": "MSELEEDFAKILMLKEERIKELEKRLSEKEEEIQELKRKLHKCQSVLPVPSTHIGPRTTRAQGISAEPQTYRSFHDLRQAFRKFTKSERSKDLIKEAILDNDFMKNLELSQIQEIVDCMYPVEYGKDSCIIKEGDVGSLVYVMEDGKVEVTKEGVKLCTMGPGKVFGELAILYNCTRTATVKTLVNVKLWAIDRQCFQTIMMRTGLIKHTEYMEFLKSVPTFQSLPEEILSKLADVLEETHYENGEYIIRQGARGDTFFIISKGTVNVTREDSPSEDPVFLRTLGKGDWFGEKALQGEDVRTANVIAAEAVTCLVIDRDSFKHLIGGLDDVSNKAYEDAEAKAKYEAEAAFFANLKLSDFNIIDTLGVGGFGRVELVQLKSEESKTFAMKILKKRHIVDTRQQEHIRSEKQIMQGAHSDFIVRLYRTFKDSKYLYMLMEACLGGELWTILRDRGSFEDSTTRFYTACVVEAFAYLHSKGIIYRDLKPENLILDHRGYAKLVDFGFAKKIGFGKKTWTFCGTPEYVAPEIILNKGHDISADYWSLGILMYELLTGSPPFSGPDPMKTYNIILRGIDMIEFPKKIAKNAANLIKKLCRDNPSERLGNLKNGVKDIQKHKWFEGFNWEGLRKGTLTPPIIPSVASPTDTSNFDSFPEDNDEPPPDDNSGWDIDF", "assay": "Inhibition of recombinant human GST-tagged full length PKG1 alpha expressed in baculovirus expression system using Ser/Thr 01 as substrate at 0.1 uM incubated for 60 mins by Z'-Lyte assay relative to control"}, "[2]": {"target": "T2, Tyrosine-protein kinase JAK3 (Homo sapiens) (UniProt P52333)", "T2 sequence (whole entry)": "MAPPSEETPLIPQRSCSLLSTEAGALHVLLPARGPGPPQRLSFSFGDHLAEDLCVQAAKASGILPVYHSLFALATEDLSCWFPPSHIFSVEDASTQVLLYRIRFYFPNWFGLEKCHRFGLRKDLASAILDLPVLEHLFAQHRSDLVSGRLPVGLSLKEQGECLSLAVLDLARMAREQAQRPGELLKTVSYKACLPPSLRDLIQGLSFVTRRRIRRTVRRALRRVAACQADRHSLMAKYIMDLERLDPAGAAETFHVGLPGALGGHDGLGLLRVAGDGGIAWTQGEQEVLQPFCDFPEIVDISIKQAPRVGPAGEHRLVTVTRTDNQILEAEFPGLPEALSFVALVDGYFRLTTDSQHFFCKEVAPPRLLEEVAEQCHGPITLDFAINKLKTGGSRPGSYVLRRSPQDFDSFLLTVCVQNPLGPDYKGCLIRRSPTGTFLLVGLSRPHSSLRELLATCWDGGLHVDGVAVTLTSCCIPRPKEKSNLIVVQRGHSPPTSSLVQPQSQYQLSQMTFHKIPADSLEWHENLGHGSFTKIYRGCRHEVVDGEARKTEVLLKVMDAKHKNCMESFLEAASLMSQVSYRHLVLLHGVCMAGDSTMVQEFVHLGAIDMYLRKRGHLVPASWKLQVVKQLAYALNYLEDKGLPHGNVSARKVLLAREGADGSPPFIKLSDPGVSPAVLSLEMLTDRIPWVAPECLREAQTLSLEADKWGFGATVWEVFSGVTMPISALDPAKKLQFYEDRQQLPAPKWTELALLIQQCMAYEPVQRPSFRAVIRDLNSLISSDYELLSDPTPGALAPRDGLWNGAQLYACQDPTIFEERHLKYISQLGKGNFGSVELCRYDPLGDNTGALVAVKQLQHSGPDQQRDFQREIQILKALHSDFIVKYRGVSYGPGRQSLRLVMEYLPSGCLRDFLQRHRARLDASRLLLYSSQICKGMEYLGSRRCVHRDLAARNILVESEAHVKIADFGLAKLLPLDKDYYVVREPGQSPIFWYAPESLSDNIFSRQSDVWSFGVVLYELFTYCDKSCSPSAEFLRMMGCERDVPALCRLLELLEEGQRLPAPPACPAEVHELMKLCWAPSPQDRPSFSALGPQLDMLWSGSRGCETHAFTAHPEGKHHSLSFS", "assay": "Inhibition of recombinant human GST-tagged JAK3 (781 to 1124 residues) expressed in baculovirus expression system using Tyr 06 as substrate at 0.1 uM incubated for 60 mins by Z'-lyte assay relative to control"}, "[3]": {"target": "Tyrosine-protein kinase SYK (Homo sapiens) (UniProt P43405)", "assay": "Inhibition of recombinant human N-terminalGST-tagged full length SYK expressed in baculovirus expression system using Tyr 02 as substrate at 0.1 uM incubated for 60 mins by Z'-Lyte assay relative to control"}}}
{"smiles": "O=C(Nc1c[nH]nc1-c1cc2ccccc2cc1OC(F)F)c1cnn2cccnc12", "values": [{"measurement": "inhibition", "setting": "[1]", "result": 3, "unit": "%"}, {"measurement": "inhibition", "setting": "[2]", "result": 94, "unit": "%"}, {"measurement": "inhibition", "setting": "[3]", "result": 6, "unit": "%"}]}
{"smiles": "O=C(Nc1c[nH]nc1-c1cc(Cl)ccc1OC(F)F)c1cnn2cccnc12", "values": [{"measurement": "inhibition", "setting": "[1]", "result": 0, "unit": "%"}, {"measurement": "inhibition", "setting": "[2]", "result": 95, "unit": "%"}, {"measurement": "inhibition", "setting": "[3]", "result": 8, "unit": "%"}]}
{"smiles": "Cn1cc(NC(=O)c2cnn3cccnc23)c(-c2cc(Cl)ccc2OC(F)F)n1", "values": [{"measurement": "inhibition", "setting": "[1]", "result": 4, "unit": "%"}, {"measurement": "inhibition", "setting": "[2]", "result": 98, "unit": "%"}, {"measurement": "inhibition", "setting": "[3]", "result": 7, "unit": "%"}]}
